Source: US9957273B2, “5-substituted 7- [4-(2-pyridyl)phenylmethylamino] -3-isopropylpyrazolo4,3-D]pyrimidine derivatives, use thereof as medicaments, and pharmaceutical compositions” (USTAV EXPERIMENTALNI BOTANIKY AV CR, V.V.I., priority 2015, dated 2018)

Assays:
Mdm-2 = test: Immunoblotting of apoptotic markers in HCT116 cells: Mdm-2; format: cell-based; conditions: 24 hours, FIG. 4
Experimental: Effect of novel compounds on apoptosis was confirmed by immunoblotting analysis of selected apoptotic proteins. For immunoblotting, cell were harvested, washed three times with ice-cold PBS and lysed in a buffer (50 mM Tris, pH 7.4, 250 mM NaCl, 5 mM EDTA, 50 mM NaF, 1 mM Na3VO4, 1% Nonidet P40) containing mixture of protease and phosphatase inhibitors (Sigma-Aldrich). 20 μg of total proteins were separated by SDS-polyacrylamide gel electrophoresis (SDS-PAGE) and transferred onto nitrocellulose membranes. Membranes were blocked in 5% milk and 0.1% Tween 20 in PBS and probed overnight with specific antibodies. Specific antibodies were purchased from SigmaAldrich (anti a-tubulin, clone DM1A), Santa Cruz Biotechnology (anti-Mcl-1, clone S-19; anti-PARP, clone F-2; anti-Mdm-2, clone SMP14; anti-Bcl-2), DAKO Cytomation Cell Signaling (anti-PUMA) or were a generous gift from Dr. B. Vojtesek (anti-p53, clone DO-1). All primary antibodies were diluted in PBS containing 5% powdered milk; 0.1% Tween 20. Peroxidase conjugated rabbit anti-mouse immunoglobulin or porcine anti-rabbit immunoglobulin antisera (DAKO) were used as the secondary antibodies and visualised with ECL reagents (GE-Healthcare Life Sciences).

[1] = test system: HL60 (human promyelocytic leukaemia); test: MTT cytotoxicity assay, leukemic cell line HL60; format: cell-based; conditions: Homo sapiens, HL-60, 72 h, three days
Description: (§1) Cytotoxicity of the compounds is the major property determining their antileukemic efficacy in vivo. One of the parameters used, as the basis for cytotoxicity assays, is the metabolic activity of viable cells. For example, a microtiter assay, which uses (3-(4,5-dimethylthiazol-2-yl)-2,5-diphenyltetrazolium bromide (MTT), is widely used to quantitate cell proliferation and cytotoxicity. This assay is widely used in drug screening programs and in chemosensitivity testing. Because only metabolically active living cells reduce MTT to correspond purple formazan dye, these assays detect viable cells exclusively. The quantity of reduced MTT corresponds to the number of vital cells in the culture.
(§2) The compounds were assayed using the following leukemic cell lines: K562 (human chronic myelogenous leukaemia), HL60 (human promyelocytic leukaemia), CEM (human lymphoblastoid leukaemia), THP1 (human monocytic cell line), MV4; 11 (acute myelocytic leukemia). All cell lines were grown in RPMI medium supplemented with fetal bovine serum and L-glutamine and maintained at 37° C. in a humidified atmosphere with 5% CO2. For cytotoxicity assays, 2000-5000 cells were seeded into each well of 96 well plate, allowed to stabilize for at least 8 h and then tested compounds were added at various concentrations ranging from 100 to 0.01 μM in triplicates. After three days, MTT solution (5 mg/ml; Sigma, St. Louis, USA) was added to cells and medium was replaced with DMSO after five hours. The absorbance was measured at 620 nm by employing a microplate reader. MTT assays were repeated 3 times for each drug application and untreated cells were used as reference.

[2] = test system: MV4;11 (acute myelocytic leukemia); test: MTT cytotoxicity assay, leukemic cell line MV4;11; format: cell-based; conditions: Homo sapiens, MV4-11, 72 h, three days
Description: as §1, §2

CDK2/Cyclin E = target: T1, CDK2/Cyclin E (Homo sapiens, UniProt P24941); test: CDK2/Cyclin E kinase inhibition (33P-ATP, histone H1); format: biochemical; conditions: 15 μM ATP
T1 construct: made in house; host or cells: Sf9 insect cells (baculovirus)
Experimental: CDK2/Cyclin E kinase was produced in Sf9 insect cells via baculoviral infection and purified on a NiNTA column (Qiagen). The kinase reactions were assayed with 1 mg/mL histone H1 in the presence of 15 μM ATP, 0.05 μCi [γ-^33P]ATP and of the test compound in a final volume of 10 μL, all in a reaction buffer (60 mM HEPES-NaOH, pH 7.5, 3 mM MgCl2, 3 mM MnCl2, 3 μM Na-orthovanadate, 1.2 mM DTT, 2.5 μg/50 μl PEG20.000). CDK5/p35 was purchased from ProQinase GmbH. The kinase reactions were assayed with 1 mg/mL histone H1 in the presence of 0.15 μM ATP, 0.05 μCi [γ-^33P]ATP and of the test compound in a final volume of 10 μL, all in a reaction buffer (60 mM HEPES-NaOH, pH 7.5, 3 mM MgCl2, 3 mM MnCl2, 3 μM Na-orthovanadate, 1.2 mM DTT, 2.5 μg/50 μl PEG20.000).
The reactions were stopped by adding 5 μL of 3% aq H3PO4. Aliquots were spotted onto P-81 phosphocellulose (Whatman), washed 3× with 0.5% aq H3PO4 and finally air-dried.

[3] = test system: G361 (malignant melanoma); test: MTT cytotoxicity assay, solid cancer cell line G361; format: cell-based; conditions: Homo sapiens, G-361, 72 h, three days
Experimental: as §2, with “following” for “following leukemic”, “G361 (malignant melanoma), MCF7 (breast adenocarcinoma), PLC/PRF/5 (liver hepatoma), PANC-1 (pancreatic carcinoma) and HCT116 (colon carcinoma).” for “K562 (human chronic myelogenous leukaemia), HL60 (human promyelocytic leukaemia), CEM (human lymphoblastoid leukaemia), THP1 (human monocytic cell line), MV4; 11 (acute myelocytic leukemia).”, “DMEM” for “RPMI”, “4000-10000” for “2000-5000”, “of a” for “of”, “16” for “8”

HCT116 (colon carcinoma) = test: MTT cytotoxicity assay, solid cancer cell line HCT116; format: cell-based; conditions: Homo sapiens, HCT-116, 72 h, three days
Experimental: as §2, with “following” for “following leukemic”, “G361 (malignant melanoma), MCF7 (breast adenocarcinoma), PLC/PRF/5 (liver hepatoma), PANC-1 (pancreatic carcinoma) and HCT116 (colon carcinoma).” for “K562 (human chronic myelogenous leukaemia), HL60 (human promyelocytic leukaemia), CEM (human lymphoblastoid leukaemia), THP1 (human monocytic cell line), MV4; 11 (acute myelocytic leukemia).”, “DMEM” for “RPMI”, “4000-10000” for “2000-5000”, “of a” for “of”, “16” for “8”

[4] = test system: PANC-1 (pancreatic carcinoma); test: MTT cytotoxicity assay, solid cancer cell line PANC-1; format: cell-based; conditions: Homo sapiens, PANC-1, 72 h, three days
Experimental: as §2, with “following” for “following leukemic”, “G361 (malignant melanoma), MCF7 (breast adenocarcinoma), PLC/PRF/5 (liver hepatoma), PANC-1 (pancreatic carcinoma) and HCT116 (colon carcinoma).” for “K562 (human chronic myelogenous leukaemia), HL60 (human promyelocytic leukaemia), CEM (human lymphoblastoid leukaemia), THP1 (human monocytic cell line), MV4; 11 (acute myelocytic leukemia).”, “DMEM” for “RPMI”, “4000-10000” for “2000-5000”, “of a” for “of”, “16” for “8”

[5] = test system: THP1 (human monocytic cell line); test: MTT cytotoxicity assay, leukemic cell line THP1; format: cell-based; conditions: Homo sapiens, THP-1, 72 h, three days
Description: as §1, §2

CC(C)c1[nH]nc2c(NCc3ccc(-c4ccccn4)cc3)nc(NCC(O)CN)nc12 (centres unmarked) [Compound 45]
expression of Mdm-2 (immunoblot) (Mdm-2): decreased expression | IC50 [1]: 0.62 µM | IC50 [2]: 0.51 µM | IC50 (CDK2/Cyclin E): 0.051 µM | IC50 [3]: 0.22 µM | IC50 (HCT116 (colon carcinoma)): 0.37 µM | IC50 [4]: 0.32 µM | IC50 [5]: 0.49 µM
